Assay results from patent publication US5847107A, “Method of preparing mixed glucosamine salts” (Rotta Research B.V. Amsterdam (Swiss Branch), priority 1996, dated 1998).

Columns and labels:
[1] = Solubility (25° C. - w/v); assay type: physicochemical; conditions: for Solubility in acetone, acetonitrile, tetrahydrofuran, dioxane: practically insoluble; for Solubility in methanol: slightly soluble; for Solubility in ethanol: very slightly soluble; for Solubility in water: very soluble
[2] = pH of a saturated aqueous solution at 20° C.; assay type: physicochemical
[3] = Stability at 25° C. and 60% R.H. (appearance, titre); assay type: physicochemical
[4] = Stability at 40° C. and 85% R.H. (appearance, titre); assay type: physicochemical
[5] = Partition coefficient in phosphate buffer (pH 6.8)/n-octanol at 25° C.; assay type: physicochemical
[6] = cited from earlier work
[7] = 0 months, (*): Crystalline powder of pale cream colour
[8] = 18 months (after slight yellowing at 12 months)
[9] = 24 months (after slight yellowing at 12 months)

| Structure (SMILES) | Solubility in benzene, chloroform, carbon tetrachloride, methylene chloride, ligroin, ethyl ether [1] | Solubility in acetone, acetonitrile, tetrahydrofuran, dioxane [1] | Solubility in methanol [1] | Solubility in ethanol [1] | Solubility in water [1] | pH of a saturated aqueous solution [2] | Titre ([3]; 0 months) | Appearance [3, 7] | Appearance ([3]; 3 months) | Titre ([3]; 3 months, 131400 min) | Appearance ([3]; 6 months) | Titre ([3]; 6 months, 262800 min) | Appearance ([3]; 9 months) | Titre ([3]; 9 months, 394200 min) | Appearance ([3]; 12 months) | Titre ([3]; 12 months, 525600 min) | Titre ([4]; 0 months) | Appearance [4, 7] | Appearance ([4]; 3 months) | Titre ([4]; 3 months, 129600 min) | other results |
| --- | --- | --- | --- | --- | --- | --- | --- | --- | --- | --- | --- | --- | --- | --- | --- | --- | --- | --- | --- | --- | --- |
| Cl.N[C@H]1C(O)O[C@H](CO)[C@@H](O)[C@@H]1O.O=S(=O)([O-])[O-].[Mg+2] (some centres unmarked) [Example 8] | Insoluble | < 0.01 % (w/v) | about 1 % (w/v) | about 0.03 % (w/v) | about 40 % (w/v) | 3 +/-0.2 | 100.5% | conforms | unchanged | 100.1% | unchanged | 99.8% | unchanged | 100.3% | unchanged | 100.6% | 100.5% | conforms | unchanged | 100.6% | Appearance ([4]; 6 months): unchanged; Titre ([4]; 6 months, 259200 min): 100.1%; Appearance ([4]; 9 months): unchanged; Titre ([4]; 9 months, 388800 min): 100.2%; Titre ([4]; 12 months, 518400 min): 97.4%; Appearance [4, 8]: unchanged; Titre ([4]; 18 months, 777600 min): 97.7%; Appearance [4, 9]: unchanged; Titre ([4]; 24 months, 1.0368e+06 min): 97.3%; Partition coefficient [5]: practically infinite |
| Cl.N[C@H]1C(O)O[C@H](CO)[C@@H](O)[C@@H]1O (some centres unmarked) [glucosamine hydrochloride, reference compound] | – | – | – | – | – | – | – | – | – | – | – | – | – | – | – | – | – | – | – | – | Stability on storage ([6]; no particular precautions in time, temperature or humidity): stable |
| Cl.N[C@H]1C(O)O[C@H](CO)[C@@H](O)[C@@H]1O.O=S(=O)([O-])[O-].[K+].[K+] (some centres unmarked) [Example 6] | Insoluble | < 0.01 % (w/v) | about 1 % (w/v) | about 0.03 % (w/v) | about 40 % (w/v) | 3 +/-0.2 | 100.1% | conforms | unchanged | 100.3% | unchanged | 99.8% | unchanged | 99.6% | unchanged | 100.3% | 100.1% | conforms | unchanged | 100.3% | Appearance ([4]; 6 months): unchanged; Titre ([4]; 6 months, 259200 min): 99.8%; Appearance ([4]; 9 months): unchanged; Titre ([4]; 9 months, 388800 min): 100.0%; Titre ([4]; 12 months, 518400 min): 95.7%; Appearance [4, 8]: unchanged; Titre ([4]; 18 months, 777600 min): 96.2%; Appearance [4, 9]: unchanged; Titre ([4]; 24 months, 1.0368e+06 min): 95.5%; Partition coefficient [5]: practically infinite |
| N[C@H]1C(O)O[C@H](CO)[C@@H](O)[C@@H]1O.O=S(=O)(O)O (some centres unmarked) [glucosamine sulphate, reference compound] | – | – | – | – | – | – | – | – | – | – | – | – | – | – | – | – | – | – | – | – | Hygroscopicity ([6]; background statement): highly hygroscopic |
